In patent publication US10953012B2, “Heterocyclic compounds for the inhibition of pask” (BioEnergenix LLC, priority 2011, dated 2021):

How the values were obtained:
hPASK (full length) = hPASK (full length) (Homo sapiens (Human), UniProt Q96RG2); assay: PAS Kinase Luminescence Assay (Kinase-Glo), full length; type: biochemical
Experimental: (§1) PAS Kinase Luminescence Assay
(§2) One assay for purified hPASK activity utilizes the Kinase-Glo Luminescent Kinase Assay (Promega), which quantifies the amount of ATP remaining in solution following kinase reaction. The assay is carried out in a 96-well plate format and is performed by adding a volume of Kinase-Glo Reagent (Promega, catalog #V3771) equal to the volume of solution in the well of a completed kinase reaction. Kinase-Glo reagent contains Luciferase and its substrate. After addition to a kinase reaction it allows to measure luminescence. The amount of ATP left in solution at the time of Kinase-Glo Plus addition is directly proportional to the luminescence that is measured in each well, and inversely correlated with kinase activity.
(§3) Purified hPASK from insect cells (0.02 μg) is added to a 50 μL reaction mix containing 40 mM HEPES (pH 7.0), 100 mM KCl, 5 mM MgCl2, 1 mM DTT and 1 μg of MBP protein. Inhibitory compounds are then added and the mixture is incubated for 10 min at 25° C. before adding 5 μL of ATP (at desired concentration). The reaction is allowed to proceed at 25° C. for 1 hour before adding 50 μL of Kinase-Glo reagent. The luminescence is measured as soon as 10 minutes after Kinase-Glo reagent is added.
(§4) Results are shown below in Table 1, where NT means not tested.

hPASK (kinase domain) = hPASK (kinase domain) (Homo sapiens (Human), UniProt Q96RG2); assay: PAS Kinase Luminescence Assay (Kinase-Glo), kinase domain; type: biochemical
Experimental: as §1, §2, §3, §4

Sequence of hPASK (kinase domain) (Q96RG2 999-1251): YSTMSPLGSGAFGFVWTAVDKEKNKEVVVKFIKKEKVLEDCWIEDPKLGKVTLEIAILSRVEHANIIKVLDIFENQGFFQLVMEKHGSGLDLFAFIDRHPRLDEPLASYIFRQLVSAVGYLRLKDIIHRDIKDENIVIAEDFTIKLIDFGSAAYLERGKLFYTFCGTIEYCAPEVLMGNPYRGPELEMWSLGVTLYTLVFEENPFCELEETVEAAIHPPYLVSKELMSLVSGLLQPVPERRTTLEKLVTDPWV
Sequence of hPASK (full length) (Q96RG2 whole entry): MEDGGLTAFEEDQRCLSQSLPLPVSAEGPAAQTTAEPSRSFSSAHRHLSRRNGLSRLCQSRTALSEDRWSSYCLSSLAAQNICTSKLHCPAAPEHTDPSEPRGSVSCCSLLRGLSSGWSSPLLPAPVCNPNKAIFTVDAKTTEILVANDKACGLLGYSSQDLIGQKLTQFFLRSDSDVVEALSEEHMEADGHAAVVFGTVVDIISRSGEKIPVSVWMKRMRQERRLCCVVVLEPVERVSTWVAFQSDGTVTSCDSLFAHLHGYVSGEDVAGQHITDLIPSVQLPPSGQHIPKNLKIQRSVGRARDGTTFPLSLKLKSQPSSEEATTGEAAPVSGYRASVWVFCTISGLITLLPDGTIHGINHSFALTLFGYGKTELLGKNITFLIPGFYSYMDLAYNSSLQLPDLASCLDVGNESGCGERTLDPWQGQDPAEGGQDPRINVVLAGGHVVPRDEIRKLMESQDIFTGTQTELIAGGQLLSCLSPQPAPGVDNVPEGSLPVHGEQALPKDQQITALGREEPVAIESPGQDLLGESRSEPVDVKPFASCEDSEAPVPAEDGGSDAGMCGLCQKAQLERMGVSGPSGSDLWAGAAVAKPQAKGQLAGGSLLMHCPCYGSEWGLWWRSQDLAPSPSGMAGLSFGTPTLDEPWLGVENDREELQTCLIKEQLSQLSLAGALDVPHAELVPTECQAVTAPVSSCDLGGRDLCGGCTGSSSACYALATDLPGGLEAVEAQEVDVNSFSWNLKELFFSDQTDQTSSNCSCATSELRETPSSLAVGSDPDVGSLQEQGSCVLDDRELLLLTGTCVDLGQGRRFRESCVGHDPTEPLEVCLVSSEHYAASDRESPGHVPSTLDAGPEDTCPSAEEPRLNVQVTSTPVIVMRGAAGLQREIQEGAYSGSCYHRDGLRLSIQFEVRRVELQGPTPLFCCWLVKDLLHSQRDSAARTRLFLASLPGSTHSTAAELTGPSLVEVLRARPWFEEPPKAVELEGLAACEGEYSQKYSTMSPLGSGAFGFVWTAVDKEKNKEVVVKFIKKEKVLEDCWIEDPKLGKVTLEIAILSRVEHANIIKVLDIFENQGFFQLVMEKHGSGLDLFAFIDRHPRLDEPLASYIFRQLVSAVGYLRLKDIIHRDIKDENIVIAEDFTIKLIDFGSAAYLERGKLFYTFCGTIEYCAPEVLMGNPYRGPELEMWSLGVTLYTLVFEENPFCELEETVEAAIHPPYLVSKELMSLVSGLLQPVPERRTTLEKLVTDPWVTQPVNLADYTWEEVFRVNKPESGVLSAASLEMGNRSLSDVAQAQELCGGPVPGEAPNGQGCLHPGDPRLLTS

| IC50 (hPASK (full length)) [µM] | IC50 (hPASK (kinase domain)) [µM] | SMILES |
| --- | --- | --- |
| ≥ 10 | ≥ 10 | COc1ccc(-c2nn3c(=O)cc(C(C)C)[nH]c3c2-c2ccccc2)cc1 [Example 30, 5-Isopropyl-2-(4-methoxy-phenyl)-3-phenyl-4H-pyrazolo[1,5-a]pyrimidin-7-one] |
| ≥ 10 | ≥ 10 | COc1ccc(Cc2nn3c(=O)cc(C)[nH]c3c2-c2ccccc2)cc1 [Example 31, 2-(4-Methoxy-benzyl)-5-methyl-3-phenyl-4H-pyrazolo[1,5-a]pyrimidin-7-one] |
| ≥ 10 | ≥ 10 | CCc1c(C)[nH]c2c(-c3ccccc3)c(Cc3ccc(OC)cc3)nn2c1=O [Example 32, 6-Ethyl-2-(4-methoxy-benzyl)-5-methyl-3-phenyl-4H-pyrazolo[1,5-a]pyrimidin-7-one] |
| ≥ 10 | ≥ 10 | CCc1c(C)[nH]c2c(-c3ccc(Cl)cc3)c(C)nn2c1=O [Example 33, 3-(4-Chloro-phenyl)-6-ethyl-2,5-dimethyl-4H-pyrazolo[1,5-a]pyrimidin-7-one] |
| ≥ 10 | ≥ 10 | O=c1cc(Cc2ccccc2)[nH]c2c(-c3ccccc3)c(-c3ccccc3)nn12 [Example 34, 5-Benzyl-2,3-diphenyl-4H-pyrazolo[1,5-a]pyrimidin-7-one] |
| ≥ 10 | ≤ 10 | O=c1c2c([nH]c3c(-c4ccccc4)c(-c4ccccc4)nn13)CCC2 [Example 35, 2,3-Diphenyl-6,7-dihydro-4H-cyclopenta[d]pyrazolo[1,5-a]pyrimidin-8(5H)-one] |
| ≥ 10 | ≥ 10 | CCOC(=O)Cc1cc(=O)n2nc(-c3ccccc3)c(-c3ccccc3)c2[nH]1 [Example 36, (7-oxo-2,3-diphenyl-4,7-dihydro-pyrazolo[1,5-a]pyrimidin-5-yl)-acetic acid ethyl ester] |
| ≥ 10 | ≥ 10 | Cc1ccc(-c2cc(=O)n3nc(C)c(-c4ccccc4)c3[nH]2)cc1 [Example 37, 2-Methyl-3-phenyl-5-p-tolyl-4H-pyrazolo[1,5-a]pyrimidin-7-one] |
| ≤ 10 | ≤ 10 | COc1ccc(-c2cc(=O)n3nc(C)c(-c4ccc(F)cc4)c3[nH]2)cc1 [Example 38, 3-(4-Fluoro-phenyl)-5-(4-methoxy-phenyl)-2-methyl-4H-pyrazolo[1,5-a]pyrimidin-7-one] |
| ≤ 10 | ≥ 10 | Cc1cc(=O)n2nc(-c3cccc(Br)c3)cc2[nH]1 [Example 39, 2-(3-Bromo-phenyl)-5-methyl-4H-pyrazolo[1,5-a]pyrimidin-7-one] |
